Laboratory results from patent US20220288082A1, “TREATMENT OF DEMENTIA” (Macquarie University, priority 2019, published 2022).

Assays:
[1] = system: APP23 mice; assay: Hippocampal telemetric EEG recordings (spikes, cross frequency coupling); format: in vivo, mouse; details: for amplitude phase in EEG recordings / modulation index of cross frequency coupling / spike frequency / hypersynchronous discharges in EEG: n=8; for spike frequency / hypersynchronous discharges in EEG: i.p., 2 hours pre vs 2 hours post administration
Method: (§1) FIG. 4. LIMK1 inhibition reduced susceptibility to induced seizures and mitigated neuronal network hypersynchronicity and memory deficits in a mouse model of Alzheimer's disease. (A) Excitotoxic seizures were induced by acute intraperitoneal injection of 50 mg/kg body weight pentylenetetrazole (PTZ) followed by timing and scoring (0=no seizures to 7=terminal status epilepticus) of seizure development. Mice were treated with vehicle or 10 mg/kg body weight LIMK1 inhibitor (LIMKi) intraperitoneally 30 minutes prior to seizure induction. […] Only vehicle-treated mice develop severe seizure stages over time (i.e. score=5). […] (B) Compound hippocampal electroencephalography (EEG) recordings over 4 hours in non-transgenic (wt) and APP transgenic (APP23) mice including 2 hours before (Pre) and 2 hours after (Post) LIMKi or vehicle administration. Time of intraperitoneal LIMKi and vehicle administration is indicated with an arrow. […] Frequent spikes pre and post vehicle administration in APP23 mice. In contrast, LIMKi injection mitigates spike activity in APP23 post injection. […] (E) Chronic Limkl inhibition reverts memory deficits in AD mice. APP23 mice develop memory deficits in the Morris water maze (MWM) paradigm at 3 months of age. Treatment with 10 mg/kg LIMKi i.p. (3-4 times per week) was initiated at 3 months of age and continued for =4 months before MWM testing at 7 months of age. […] For bar graphs in (C) and (E), from left to right: non-Tg +vehicle; non-Tg+LIMKi; APP23+vehicle; APP23+LIMKi.
Electroencephalography. Hippocampal EEG recordings were done with implanted telemetric electrodes (D.S.I.) as previously described (Ittner et al., 2014, Acta neuropathologica communications 2, 149). All recordings were done with mice individually housed in their home cages one week after implantation of transmitters. Compound administration was done intraperitoneally during transient restraining of mice. Vehicle for the LIMK1 inhibitor LIMKi contained hydroxypropyl methylcellulose 606 (HPMC 606) with polyvinylpyrrolidone k17 (PVP k17) and tween 80 in a proportion of 0.5%, 0.5%, 0.1%, respectively. Spike analysis was done with the Neuroscore software module (D.S.I.) as previously described (Ittner et al., 2016, Science 354, 904-908). Cross frequency coupling of theta and gamma waves was performed as previously described (Ittner et al., 2016, Science 354, 904-908).

[2] = target: T1, LIMK1 (Homo sapiens, UniProt P53667); assay: LIMK1 activity assay (commercial, Promega); format: biochemical; details: in vitro; LIMKi at 100 μm, 10 μm, 1 μm, 0.1 μm; DMSO did not inhibit
T1 construct: purchased Promega
Description: LIMK1 activity assay. LIMK1 activity in the absence or presence of different concentrations of LIMKi (or DMSO) was determine with a commercial assay following the manufacturer's instructions (Promega).

[3] = system: APP23 mice; assay: Morris water maze memory testing after chronic treatment; format: in vivo, mouse
Method: as §1
Memory testing. Memory of mice was assessed in the water T maze paradigm and Morris water maze following published protocols (Ittner et al., 2010, Cell 142, 387-397; Ke et al., 2015, Acta Neuropathol 130, 661-678). Chronic treatment of mice was done by 3-4 times per week intraperitoneal injection of 10 mg/kg LIMKi or vehicle (0.5% hydroxypropyl methylcellulose 606 (HPMC 606), 0.5% polyvinylpyrrolidone k17 (PVP k17) and 0.1% tween 80) starting at 3 months of age and continued until 7 months of age. All mice were acclimatized to the test rooms prior to testing.
Encouraged by the short-term effects of Compound 1 in neurons and APP23 mice (Example 3), the inventors tested whether long-term treatment could improve memory deficits in APP23 mice. 3-month old APP23 mice were treated for four months before being subjected to memory testing in the MWM. APP23 mice present with significant memory deficits at 3 months of age, that progress with age (Ittner et al., 2016, Science 354:904-908). An intermittent treatment schedule was chosen to avoid potential inhibition of astrocyte-mediated AP clearance that could mask therapeutic effects. At 7 months of age, vehicle-treated APP23 mice presented with significant memory deficits as compared to vehicle-treated non-transgenic mice (FIG. 4E).

[4] = system: C57B^1/6 mice; assay: PTZ-induced excitotoxic seizure model; format: in vivo, mouse; details: for mean seizure severity: n=9
Method: as §1
Seizure model. Excitotoxic seizure were induced in mice by intraperitoneal injection of 50 mg/kg body weight pentylenetetrazole followed by observation in a square area (40×40 cm). Scoring of seizures was done as previously described (Ittner et al., 2010, Cell 142, 387-397). For LIMKi-treated mice, scoring was adjusted by combining the severe seizure scores 5 to 7 into a single score of 5. For both scales, minor to moderate seizures are reflected by scores <5.

[5] = system: C57B^1/6 primary mouse neurons; assay: Aβ toxicity in cultured primary neurons (dendritic spine loss, cell viability); format: cell-based; details: pre-treatment, 0.05 μM oligomeric Aβ
Method: C57B^1/6 primary mouse neurons were treated with Compound 1 shown below (also referred to herein as LIMKi) together with 0.05 μM oligomeric Aβ (oAβ ) and determined loss of dendritic spines and cell viability.
Aβ treated neurons presented with loss of spines and reduced viability. […] Next, the inventors determined the potential short-term effects of Compound 1 in vivo. […] Next, the inventors tested the effects of acute Compound 1 administration on neuronal network activity in APP23 mice. […] Furthermore, CFC 1 hour after Compound 1 administration was re-established (data not shown). […] Thus, inhibition of LIMK1 with Compound 1 conferred protection from Aβ toxicity in neurons and from excitotoxicity in vivo. Furthermore, treatment of APP23 with Compound 1 corrected network aberrations including CFC.

[6] = APP23 mice, 1 hour after administration
[7] = APP23 mice, 1 hour after administration, listed as LIMKi
[8] = 10 mg/kg i.p. 30 minutes prior to 50 mg/kg PTZ, vs vehicle

T1 sequence (P53667 whole entry): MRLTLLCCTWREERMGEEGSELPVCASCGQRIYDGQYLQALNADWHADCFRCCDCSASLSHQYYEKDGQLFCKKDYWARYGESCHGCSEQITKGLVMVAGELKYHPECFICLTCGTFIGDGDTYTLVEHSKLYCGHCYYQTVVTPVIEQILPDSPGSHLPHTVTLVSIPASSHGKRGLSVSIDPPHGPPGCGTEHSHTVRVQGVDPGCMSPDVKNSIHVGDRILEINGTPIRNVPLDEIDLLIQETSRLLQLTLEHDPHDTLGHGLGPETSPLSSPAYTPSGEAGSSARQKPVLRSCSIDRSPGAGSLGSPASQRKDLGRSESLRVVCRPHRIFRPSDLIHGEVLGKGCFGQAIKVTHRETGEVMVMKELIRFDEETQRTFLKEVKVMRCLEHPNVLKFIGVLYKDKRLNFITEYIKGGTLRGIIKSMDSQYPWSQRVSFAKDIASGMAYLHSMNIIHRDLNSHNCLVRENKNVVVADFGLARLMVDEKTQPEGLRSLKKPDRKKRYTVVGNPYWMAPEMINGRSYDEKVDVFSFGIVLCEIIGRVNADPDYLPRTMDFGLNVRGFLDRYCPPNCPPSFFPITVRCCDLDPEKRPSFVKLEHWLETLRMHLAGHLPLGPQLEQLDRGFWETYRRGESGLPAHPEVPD

Compound: Cc1c[nH]c2ncnc(N3CCN(/C(=N\C#N)Nc4cccc(Br)c4)[C@@H](C)C3)c12 [Compound 1]
- cross frequency coupling (CFC) ([1]; APP23 mice, 1 hour after administration, data not shown): re-established
- amplitude phase in EEG recordings [1, 6]: normalized
- modulation index of cross frequency coupling [1, 6]: normalized
- amplitude phase in EEG recordings [1, 7]: corrected 1 hour after LIMKi delivery and no longer different from wt controls
- modulation index of cross frequency coupling [1, 7]: corrected 1 hours after LIMKi administration and no longer different from wt controls
- spike frequency / hypersynchronous discharges in EEG ([1]; APP23 mice): hypersynchronicity significantly decreased
- spike frequency / hypersynchronous discharges in EEG ([1]; APP23 mice, listed as LIMKi): significantly reduced spike frequency
- spike activity in EEG ([1]; non-transgenic (wt) mice, pre and post injection): No overt spike activity
- LIMK1 activity [2]: inhibition of the kinase by LIMKi at all concentrations tested
- time in target quadrant during MWM probe trials ([3]; APP23 mice, 10 mg/kg i.p. 3-4 times per week for 4 months, n=8-10): no significant differences to controls
- learning in Morris water maze ([3]; APP23 mice, 10 mg/kg i.p. 3-4 times per week from 3 to 7 months of age): improved learning of APP23 mice to vehicle control levels
- memory performance in MWM ([3]; APP23 mice, after four months of treatment, tested at 7 months of age): improved memory performance
- learning in Morris water maze ([3]; non-transgenic control mice, 10 mg/kg i.p. 3-4 times per week for 4 months, 10 mg/kg): delayed learning
- learning in Morris water maze ([3]; non-transgenic control mice, 10 mg/kg i.p. 3-4 times per week for 4 months, listed as LIMKi, 10 mg/kg): moderately delayed learning
- latency to develop severe seizures ([4]; 10 mg/kg 30 minutes prior to PTZ, C57B1/6 mice): increased the latency to develop severe seizures
- latency to develop lower grade seizures (score<5) [4, 8]: Delayed latency to develop lower grade seizures
- mean seizure severity [4, 8]: significantly reduced mean seizure severity
- mean seizure severity ([4]; 10 mg/kg i.p. 30 minutes prior to 50 mg/kg PTZ, vs vehicle, listed as LIMKi): Significantly reduced seizure severity
- Aβ-induced death of cultured neurons (cell viability) [5]: dose-dependent protection
- Aβ-induced dendritic spine loss [5]: dose-dependent protection
